Data taken from ChEMBL document CHEMBL1201862, “PubChem BioAssay data set” (2004).
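A five-concentration, 48-hour dose response in 96-well plates underlies each endpoint, interpolated linearly between surrounding concentrations. GI50 is the concentration that inhibits growth by half.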 Activity calls are given as the source filed them. Cut-off read from the data, not from the text of the source: active = GI50 up to about 1.1 µM and inactive = higher.

Assays:
Assay in all cases: growth of human tumour cells (NCI), 48 h
HOP-62 = tested on: HOP-62
NCI-H522 = tested on: NCI-H522
SK-OV-3 = tested on: SK-OV-3
UACC-257 = tested on: UACC-257
SNB-19 = tested on: SNB-19
COLO 205 = tested on: COLO 205
NCI-H460 = tested on: NCI-H460
SW-620 = tested on: SW-620
KM12 = tested on: KM12
UACC-62 = tested on: UACC-62
PC-3 = tested on: PC-3
NCI-H226 = tested on: NCI-H226
HCT-116 = tested on: HCT-116
SK-MEL-28 = tested on: SK-MEL-28
K562 = tested on: K562
OVCAR-3 = tested on: OVCAR-3
HCC 2998 = tested on: HCC 2998
M14 = tested on: M14
ACHN = tested on: ACHN
SK-MEL-2 = tested on: SK-MEL-2
T47D = tested on: T47D
MCF7 = tested on: MCF7
EKVX = tested on: EKVX
U-251 = tested on: U-251
TK-10 = tested on: TK-10
A498 = tested on: A498
HCT-15 = tested on: HCT-15
SNB-75 = tested on: SNB-75
IGROV-1 = tested on: IGROV-1
SN12C = tested on: SN12C
SF-295 = tested on: SF-295
SF-268 = tested on: SF-268
OVCAR-4 = tested on: OVCAR-4
Malme-3M = tested on: Malme-3M
OVCAR-5 = tested on: OVCAR-5
RXF 393 = tested on: RXF 393
BT-549 = tested on: BT-549
SR = tested on: SR
HL-60 = tested on: HL-60
MDA-N = tested on: MDA-N
HOP-92 = tested on: HOP-92
LOX IMVI = tested on: LOX IMVI
RPMI-8226 = tested on: RPMI-8226
Hs-578T = tested on: Hs-578T
DU-145 = tested on: DU-145
CAKI-1 = tested on: CAKI-1
MDA-MB-435 = tested on: MDA-MB-435
SK-MEL-5 = tested on: SK-MEL-5
UO-31 = tested on: UO-31
MDA-MB-231 = tested on: MDA-MB-231
OVCAR-8 = tested on: OVCAR-8
NCI/ADR-RES = tested on: NCI/ADR-RES
CCRF-CEM = tested on: CCRF-CEM
786-0 = tested on: 786-0
NCI-H23 = tested on: NCI-H23
HT-29 = tested on: HT-29
A549 = tested on: A549
MOLT-4 = tested on: MOLT-4
SF-539 = tested on: SF-539

Measured: GI50

C[N+](C)(C)c1ccc(C(N)C(=O)O)cc1 (centres undefined)
> 100 µM: HCT-15
inactive: HOP-62 > 100 µM | NCI-H522 > 100 µM | SK-OV-3 > 100 µM | UACC-257 > 100 µM | SNB-19 > 100 µM | COLO 205 > 100 µM | NCI-H460 > 100 µM | SW-620 > 100 µM | KM12 > 100 µM | UACC-62 > 100 µM | PC-3 > 100 µM | NCI-H226 > 100 µM | HCT-116 > 100 µM | SK-MEL-28 > 100 µM | K562 > 100 µM | OVCAR-3 > 100 µM | HCC 2998 > 100 µM | M14 > 100 µM | ACHN > 100 µM | SK-MEL-2 > 100 µM | T47D > 100 µM | MCF7 > 100 µM | EKVX > 100 µM | U-251 > 100 µM | TK-10 > 100 µM | A498 > 100 µM | SNB-75 > 100 µM | IGROV-1 > 100 µM | SN12C > 100 µM | SF-295 > 100 µM | SF-268 > 100 µM | OVCAR-4 > 100 µM | Malme-3M > 100 µM | OVCAR-5 > 100 µM | RXF 393 > 100 µM | BT-549 > 100 µM | SR > 100 µM | HL-60 43.7 µM | MDA-N > 100 µM | HOP-92 > 100 µM | LOX IMVI > 100 µM | RPMI-8226 > 100 µM | Hs-578T > 100 µM | DU-145 > 100 µM | CAKI-1 > 100 µM | MDA-MB-435 > 100 µM | SK-MEL-5 > 100 µM | UO-31 > 100 µM | MDA-MB-231 > 100 µM | OVCAR-8 > 100 µM | NCI/ADR-RES > 100 µM | CCRF-CEM > 100 µM | 786-0 > 100 µM | NCI-H23 > 100 µM | HT-29 > 100 µM

COC(=O)c1ccc(/C=C/C2=CC(=O)C=CC2=O)cc1
inactive: A549 > 63.5 µM | HOP-62 50.8 µM | NCI-H522 1.8 µM | UACC-257 17.1 µM | SNB-19 10.5 µM | COLO 205 18.7 µM | NCI-H460 23.9 µM | SW-620 16.8 µM | KM12 14.4 µM | UACC-62 19.4 µM | PC-3 12.8 µM | NCI-H226 17.6 µM | HCT-116 15.1 µM | SK-MEL-28 20.8 µM | K562 2.43 µM | OVCAR-3 9.73 µM | HCC 2998 20.7 µM | M14 24.7 µM | ACHN 14.7 µM | SK-MEL-2 24 µM | T47D 6.35 µM | MCF7 8.57 µM | EKVX 19.1 µM | U-251 17.3 µM | TK-10 21.2 µM | A498 18.7 µM | SNB-75 32.8 µM | IGROV-1 16.7 µM | SN12C 18.9 µM | SF-295 29.6 µM | SF-268 16.7 µM | OVCAR-4 19.9 µM | Malme-3M 17.4 µM | OVCAR-5 19.9 µM | RXF 393 20.4 µM | BT-549 5.81 µM | SR 3.3 µM | HL-60 2.37 µM | MDA-N 41.7 µM | HOP-92 13.5 µM | LOX IMVI 6.14 µM | Hs-578T 44.6 µM | DU-145 45.1 µM | MOLT-4 2.74 µM | SF-539 10.5 µM | CAKI-1 13.8 µM | MDA-MB-435 17.4 µM | SK-MEL-5 20.8 µM | UO-31 11.4 µM | MDA-MB-231 10.9 µM | OVCAR-8 16.8 µM | NCI/ADR-RES 22.4 µM | CCRF-CEM 2.4 µM | 786-0 11.4 µM | NCI-H23 18.1 µM | HT-29 21.5 µM
16.1 µM: HCT-15
active: RPMI-8226 1.01 µM
